Legend:
hNav1.7 [1] = target: T1, hNav1.7 (Homo sapiens (Human), UniProt Q15858); assay: Tritiated aryl sulfonamide binding to membranes from cells expressing hNav1.7 and the β1 subunit (competitive binding); conditions: membranes with hNav1.7 and β1 subunit; [3H]compound displacement, 18 h, room temperature; read-out: NaV1.7 395 Memb Binding (IC50)
How it was run: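 Competitive displacement of 100 μM [3H]-labelled tritiated aryl sulfonamide from hNav1.7/β1 membranes, 18 h at room temperature in 100 mM NaCl, 20 mM Tris HCl pH 7.4. Non-specific binding defined with 1 μM unlabelled compound. Filter-bound radioactivity measured by liquid scintillation counting.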

hNav1.7 [2] = target: T1, hNav1.7; assay: Patch voltage clamp electrophysiology (PatchXpress), HEK-293 cells, inactivated state block; type: cell-based; conditions: HEK-293 cells, β1 coexpressed; inactivated state, holding −60 mV; read-out: EP_PX 293 hNav1.7 (IC50)
hNav1.5 = hNav1.5 (Homo sapiens (Human), UniProt Q14524); assay: as above; conditions: read-out: EP_PX 293 hNav1.5 (IC50), β1 coexpressed, holding −60 mV;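 note: control was the sodium current recorded in 0.5% DMSO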
Chain of hNav1.5 (Q14524 whole entry): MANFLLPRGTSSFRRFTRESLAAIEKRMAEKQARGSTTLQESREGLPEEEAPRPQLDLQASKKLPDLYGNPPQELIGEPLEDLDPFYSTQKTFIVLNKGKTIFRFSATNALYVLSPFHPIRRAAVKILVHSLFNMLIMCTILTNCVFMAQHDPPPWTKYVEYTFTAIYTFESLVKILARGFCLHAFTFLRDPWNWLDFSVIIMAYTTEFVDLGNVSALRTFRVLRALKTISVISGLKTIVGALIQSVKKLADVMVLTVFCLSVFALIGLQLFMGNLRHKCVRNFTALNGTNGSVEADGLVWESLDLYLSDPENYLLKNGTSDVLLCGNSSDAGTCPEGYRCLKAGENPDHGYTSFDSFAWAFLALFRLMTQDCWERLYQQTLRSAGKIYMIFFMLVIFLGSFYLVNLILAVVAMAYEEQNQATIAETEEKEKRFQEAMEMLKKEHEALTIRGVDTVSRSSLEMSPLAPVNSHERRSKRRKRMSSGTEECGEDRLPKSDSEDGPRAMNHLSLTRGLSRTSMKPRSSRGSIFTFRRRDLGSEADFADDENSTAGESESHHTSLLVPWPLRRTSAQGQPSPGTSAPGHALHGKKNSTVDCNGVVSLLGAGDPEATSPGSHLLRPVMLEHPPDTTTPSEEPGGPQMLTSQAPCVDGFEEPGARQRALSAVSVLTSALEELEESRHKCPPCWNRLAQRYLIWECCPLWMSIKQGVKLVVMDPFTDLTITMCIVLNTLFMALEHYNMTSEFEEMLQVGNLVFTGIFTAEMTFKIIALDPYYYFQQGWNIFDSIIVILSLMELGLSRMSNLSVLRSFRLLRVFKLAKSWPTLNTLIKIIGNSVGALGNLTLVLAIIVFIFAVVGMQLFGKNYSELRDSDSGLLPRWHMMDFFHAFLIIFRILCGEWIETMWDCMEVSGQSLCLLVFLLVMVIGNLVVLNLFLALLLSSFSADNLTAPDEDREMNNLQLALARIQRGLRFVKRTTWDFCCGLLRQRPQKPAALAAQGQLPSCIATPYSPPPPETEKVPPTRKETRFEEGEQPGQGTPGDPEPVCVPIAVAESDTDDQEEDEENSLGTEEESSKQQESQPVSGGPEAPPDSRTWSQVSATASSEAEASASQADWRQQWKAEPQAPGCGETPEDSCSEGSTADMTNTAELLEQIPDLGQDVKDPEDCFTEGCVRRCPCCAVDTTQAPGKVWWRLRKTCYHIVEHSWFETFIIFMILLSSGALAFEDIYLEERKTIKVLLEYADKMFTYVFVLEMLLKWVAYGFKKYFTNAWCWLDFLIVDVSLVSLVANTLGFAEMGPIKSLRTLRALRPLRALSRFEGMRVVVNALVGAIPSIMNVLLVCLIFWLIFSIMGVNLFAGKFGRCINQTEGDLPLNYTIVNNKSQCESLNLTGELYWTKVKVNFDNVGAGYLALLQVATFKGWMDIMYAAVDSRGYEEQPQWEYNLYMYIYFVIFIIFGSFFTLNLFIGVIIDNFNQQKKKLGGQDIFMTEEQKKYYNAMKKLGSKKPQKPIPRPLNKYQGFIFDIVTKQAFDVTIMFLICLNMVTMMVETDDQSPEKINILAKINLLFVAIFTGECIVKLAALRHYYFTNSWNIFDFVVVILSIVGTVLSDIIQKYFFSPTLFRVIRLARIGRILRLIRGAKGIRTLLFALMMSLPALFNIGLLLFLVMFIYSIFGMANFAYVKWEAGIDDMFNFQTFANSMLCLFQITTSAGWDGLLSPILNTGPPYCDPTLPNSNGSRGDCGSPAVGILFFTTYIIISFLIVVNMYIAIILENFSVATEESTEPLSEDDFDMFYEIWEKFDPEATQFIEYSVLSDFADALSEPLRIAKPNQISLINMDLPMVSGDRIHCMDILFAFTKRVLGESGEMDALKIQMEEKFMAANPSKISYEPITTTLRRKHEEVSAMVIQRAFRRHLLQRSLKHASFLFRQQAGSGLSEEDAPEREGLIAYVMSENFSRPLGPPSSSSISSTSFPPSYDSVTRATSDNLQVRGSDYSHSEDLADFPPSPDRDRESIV

T1 sequence (Q15858 whole entry, looked up): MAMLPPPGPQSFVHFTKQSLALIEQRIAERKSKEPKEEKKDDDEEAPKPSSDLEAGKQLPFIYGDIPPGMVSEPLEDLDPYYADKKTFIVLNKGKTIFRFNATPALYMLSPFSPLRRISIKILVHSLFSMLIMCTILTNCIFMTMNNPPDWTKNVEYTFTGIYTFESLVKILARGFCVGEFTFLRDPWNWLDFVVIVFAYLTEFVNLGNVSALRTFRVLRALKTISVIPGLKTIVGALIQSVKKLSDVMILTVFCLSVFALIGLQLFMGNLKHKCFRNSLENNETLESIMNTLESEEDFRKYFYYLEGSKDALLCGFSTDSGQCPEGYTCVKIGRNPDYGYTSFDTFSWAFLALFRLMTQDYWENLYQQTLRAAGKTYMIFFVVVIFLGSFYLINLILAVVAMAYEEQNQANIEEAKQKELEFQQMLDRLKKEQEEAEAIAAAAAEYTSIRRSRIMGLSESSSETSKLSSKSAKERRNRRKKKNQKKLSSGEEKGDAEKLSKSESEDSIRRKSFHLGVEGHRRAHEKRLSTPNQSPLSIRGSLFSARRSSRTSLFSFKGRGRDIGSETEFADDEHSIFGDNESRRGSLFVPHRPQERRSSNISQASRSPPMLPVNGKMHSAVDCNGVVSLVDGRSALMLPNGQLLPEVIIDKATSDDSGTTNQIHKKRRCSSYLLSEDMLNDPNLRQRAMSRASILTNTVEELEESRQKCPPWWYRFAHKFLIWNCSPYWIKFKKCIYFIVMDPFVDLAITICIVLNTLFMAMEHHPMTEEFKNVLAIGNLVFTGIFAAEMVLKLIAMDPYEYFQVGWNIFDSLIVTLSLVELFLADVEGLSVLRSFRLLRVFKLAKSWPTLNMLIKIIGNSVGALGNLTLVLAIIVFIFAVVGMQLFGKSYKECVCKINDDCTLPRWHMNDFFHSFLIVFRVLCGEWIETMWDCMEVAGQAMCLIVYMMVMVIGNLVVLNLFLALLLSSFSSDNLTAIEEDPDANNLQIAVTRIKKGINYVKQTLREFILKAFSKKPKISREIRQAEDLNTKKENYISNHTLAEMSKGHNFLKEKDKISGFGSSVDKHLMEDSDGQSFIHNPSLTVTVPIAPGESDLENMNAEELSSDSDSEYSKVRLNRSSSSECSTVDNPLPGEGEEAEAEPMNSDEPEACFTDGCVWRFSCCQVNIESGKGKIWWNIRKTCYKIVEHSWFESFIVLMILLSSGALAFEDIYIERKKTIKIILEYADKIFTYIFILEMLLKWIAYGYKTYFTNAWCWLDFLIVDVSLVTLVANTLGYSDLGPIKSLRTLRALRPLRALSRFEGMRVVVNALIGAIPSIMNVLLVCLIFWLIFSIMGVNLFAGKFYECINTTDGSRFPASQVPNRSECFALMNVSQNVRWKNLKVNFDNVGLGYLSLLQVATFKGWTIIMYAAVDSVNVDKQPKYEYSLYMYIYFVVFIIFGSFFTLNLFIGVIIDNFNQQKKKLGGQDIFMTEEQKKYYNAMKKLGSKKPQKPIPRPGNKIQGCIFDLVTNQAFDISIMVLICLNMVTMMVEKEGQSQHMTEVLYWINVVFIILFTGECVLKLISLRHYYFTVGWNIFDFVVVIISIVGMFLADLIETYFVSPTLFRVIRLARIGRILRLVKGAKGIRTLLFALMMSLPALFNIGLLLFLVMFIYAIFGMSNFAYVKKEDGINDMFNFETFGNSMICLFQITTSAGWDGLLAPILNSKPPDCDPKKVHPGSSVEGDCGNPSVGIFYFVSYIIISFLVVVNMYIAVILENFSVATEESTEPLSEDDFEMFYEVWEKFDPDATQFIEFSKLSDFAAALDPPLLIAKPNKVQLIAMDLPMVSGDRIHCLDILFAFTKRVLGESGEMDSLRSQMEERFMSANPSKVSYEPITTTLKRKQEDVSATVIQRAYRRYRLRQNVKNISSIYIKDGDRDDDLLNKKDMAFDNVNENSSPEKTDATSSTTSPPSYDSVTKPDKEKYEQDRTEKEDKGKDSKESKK
T1 sequence (Q07699 whole entry partner, looked up): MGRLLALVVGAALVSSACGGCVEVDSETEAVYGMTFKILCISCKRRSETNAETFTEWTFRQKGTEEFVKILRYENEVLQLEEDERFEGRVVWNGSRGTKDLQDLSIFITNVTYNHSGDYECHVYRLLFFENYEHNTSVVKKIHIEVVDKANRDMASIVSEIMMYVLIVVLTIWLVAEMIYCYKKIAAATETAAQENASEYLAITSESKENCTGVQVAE

Compound: CS(=O)(=O)NC(=O)c1cc(Cl)c(OCC2CC3C4CCC(C4)C3C2)cc1F (stereo not drawn) [Example 445]
- IC50 (hNav1.7 [1]): 9.3 nM
- IC50 (hNav1.7 [2]): 3.6 nM
- IC50 (hNav1.5): 743 nM

Compound: O=C(NS(=O)(=O)C1CC1)c1cc(C2CC2)c(OCC2(C(F)(F)F)CCCCC2)cc1F [Example 446, 5-cyclopropyl-N-(cyclopropylsulfonyl)-2-fluoro-4-((1-(trifluoromethyl)-cyclohexyl)methoxy)benzamide]
- IC50 (hNav1.7 [1]): 1.6 nM
- IC50 (hNav1.7 [2]): 3.1 nM
- IC50 (hNav1.5): 160 nM

Compound: O=C(NS(=O)(=O)N1CCC1)c1cc(C2CC2)c(OCC2CCC(F)(F)CC2)cc1F [Example 448, N-(azetidin-1-ylsulfonyl)-5-cyclopropyl-4-((4,4-difluorocyclohexyl)-methoxy)-2-fluorobenzamide]
- IC50 (hNav1.7 [1]): 18 nM
- IC50 (hNav1.7 [2]): 7.8 nM
- IC50 (hNav1.5): 940 nM
